Paper PMC4943339 (Molecular pharmaceutics, 2015)

Test: Pharmacokinetics of vancomycin after i.v. or pulmonary
Details: rabbits, 1 mg/kg i.v. bolus, plasma, LC/MS, non-compartmental, average ± S.D., n = 3; SD

CN[C@H](CC(C)C)C(=O)N[C@H]1C(=O)N[C@@H](CC(N)=O)C(=O)N[C@H]2C(=O)N[C@H]3C(=O)N[C@H](C(=O)N[C@H](C(=O)O)c4cc(O)cc(O)c4-c4cc3ccc4O)[C@H](O)c3ccc(c(Cl)c3)Oc3cc2cc(c3O[C@@H]2O[C@H](CO)[C@@H](O)[C@H](O)[C@H]2O[C@H]2C[C@](C)(N)[C@H](O)[C@H](C)O2)Oc2ccc(cc2Cl)[C@H]1O [vancomycin]
AUC(0-∞): 12.13534 ± 0.61652 µg·h/mL | AUClast: 12.06985 ± 0.63815 µg·h/mL | C0: 5.347 ± 4.927 µg/mL | Clearance: 0.08255 ± 0.00425 L/h/kg | Cmax: 3.33 ± 1.119 µg/mL | Half-Life: 3.38 ± 0.43 h | Tmax: 0.67 ± 0.29 h | Volume of Dist.: 0.40389 ± 0.06483 L/kg
